Measured values taken from PubChem BioAssay AID330 (DTP/NCI, 2004).
Several values for one entry are separate records, joined by “and”; a condition that tells them apart may be missing. Equal values may be shown once. Inconclusive results and toxic doses are left out.

System: P388 leukemia ip, CD2F1 mice, survival T/C
Assay: NCI In Vivo Anticancer Drug Screen. Data for tumor model P388 Leukemia (intraperitoneal) in CD2F1 (CDF1) mice
Settings: endpoint: median survival time, higher = longer survival
How it was run: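 Mice carrying the transplanted tumor received test compound or vehicle. Survival was recorded in each group, and the value is the treated-group measurement divided by that of the vehicle-treated control group.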

[1] = dose: 60.0 mg/kg/injection, schedule: Q01DX005 (ip), vehicle: saline with Tween-80
[2] = dose: 120.0 mg/kg/injection, schedule: Q01DX005 (ip), vehicle: saline with Tween-80
[3] = dose: 240.0 mg/kg/injection, schedule: Q01DX005 (ip), vehicle: saline with Tween-80
[4] = dose: 50.0 mg/kg/injection, schedule: Q01DX005 (ip), vehicle: saline with Tween-80
[5] = dose: 100.0 mg/kg/injection, schedule: Q01DX005 (ip), vehicle: saline with Tween-80
[6] = dose: 50.0 mg/kg/injection, schedule: Q01DX009 (ip), vehicle: saline
[7] = dose: 100.0 mg/kg/injection, schedule: Q01DX009 (ip), vehicle: saline
[8] = dose: 100.0 mg/kg/injection, schedule: Q04DX002 (ip), vehicle: saline with Tween-80
[9] = dose: 200.0 mg/kg/injection, schedule: Q04DX002 (ip), vehicle: saline with Tween-80

With `N#CC1Sc2ccccc2N1C(=O)Oc1ccccc1` (configuration not stated) the T/C [1] was 102 % of control, the T/C [2] was 106 % of control and the T/C [3] was 106 % of control.
For `CC1=NN(c2ccccc2)C(=O)/C1=C(\[O-])c1ccccc1.CC1=NN(c2ccccc2)C(=O)/C1=C(\[O-])c1ccccc1.CC1=NN(c2ccccc2)C(=O)/C1=C(\[O-])c1ccccc1.[Fe+3]`, the T/C (dose: 15.0 mg/kg/injection, schedule: Q01DX005 (ip), vehicle: saline with Tween-80) was 96 % of control and 97 % of control, the T/C (dose: 30.0 mg/kg/injection, schedule: Q01DX005 (ip), vehicle: saline with Tween-80) was 101 % of control and 90 % of control and the T/C [2] was 104 % of control and 87 % of control.
With `CC(=O)Nc1ccc(S(=O)(=O)Nc2c(-c3ccccc3)[nH]c(C)c2C(C)=O)cc1` the T/C [1] was 102 % of control, the T/C [2] was 102 % of control and the T/C [3] was 98 % of control.
In the case of `C/C(=N\NC(=S)Nc1ccc(C(=O)O)cc1C)c1ccccn1`, the T/C [4] is reported as 114 % of control and the T/C [5] is reported as 121 % of control.
`CC(=O)NC(Cc1cccs1)C(=O)O` (configuration not stated) was tested, and the T/C [6] was 93 % of control, the T/C [7] was 101 % of control and the T/C (dose: 200.0 mg/kg/injection, schedule: Q01DX009 (ip), vehicle: saline) was 101 % of control.
For `CN(C)C1C(=O)C(C(=O)NP(=O)(NCCCO)N(CCCl)CCCl)=C(O)C2(O)C(=O)C3=C(O)c4c(O)cccc4C(C)(O)C3CC12` (configuration not stated), the T/C (dose: 0.25 mg/kg/injection, schedule: Q01DX005 (ip), vehicle: saline) was 92 % of control, the T/C (dose: 0.5 mg/kg/injection, schedule: Q01DX005 (ip), vehicle: saline) was 102 % of control and the T/C (dose: 1.0 mg/kg/injection, schedule: Q01DX005 (ip), vehicle: saline) was 104 % of control. The T/C (dose: 2.0 mg/kg/injection, schedule: Q01DX005 (ip), vehicle: saline) was 100 % of control, the T/C (dose: 3.13 mg/kg/injection, schedule: Q04DX003 (ip), vehicle: saline) was 98 % of control and the T/C (dose: 4.0 mg/kg/injection, schedule: Q01DX005 (ip), vehicle: saline) was 101 % of control. The T/C (dose: 6.25 mg/kg/injection, schedule: Q04DX003 (ip), vehicle: saline) was 102 % of control, the T/C (dose: 8.0 mg/kg/injection, schedule: Q01DX005 (ip), vehicle: saline) was 101 % of control and the T/C (dose: 12.5 mg/kg/injection, schedule: Q04DX003 (ip), vehicle: saline) was 103 % of control. For the same compound, the T/C (dose: 25.0 mg/kg/injection, schedule: Q04DX003 (ip), vehicle: saline) was 107 % of control and the T/C (dose: 50.0 mg/kg/injection, schedule: Q04DX003 (ip), vehicle: saline) was 108 % of control.
With `CCCCCCCCCCCCCCCCCC(=O)NC[n+]1ccccc1` the T/C (dose: 50.0 mg/kg/injection, schedule: Q04DX002 (ip), vehicle: Klucel (hydroxypropylcellulose) (HPC)) was 96 % of control, the T/C (dose: 100.0 mg/kg/injection, schedule: Q04DX002 (ip), vehicle: Klucel (hydroxypropylcellulose) (HPC)) was 87 % of control and the T/C (dose: 200.0 mg/kg/injection, schedule: Q04DX002 (ip), vehicle: Klucel (hydroxypropylcellulose) (HPC)) was 91 % of control.
For `N#CC(Cc1ccccc1)c1ccc(Cl)cc1` (configuration not stated), the T/C (dose: 50.0 mg/kg/injection, schedule: Q01DX009 (ip), vehicle: Klucel (hydroxypropylcellulose) (HPC)) was 106 % of control, the T/C (dose: 100.0 mg/kg/injection, schedule: Q01DX009 (ip), vehicle: Klucel (hydroxypropylcellulose) (HPC)) was 110 % of control and the T/C (dose: 200.0 mg/kg/injection, schedule: Q01DX009 (ip), vehicle: Klucel (hydroxypropylcellulose) (HPC)) was 104 % of control. The T/C (dose: 400.0 mg/kg/injection, schedule: Q01DX009 (ip), vehicle: Klucel (hydroxypropylcellulose) (HPC)) was 109 % of control.
With `O=C1CCCCC1C(=O)C(F)(F)F` (configuration not stated) the T/C (dose: 50.0 mg/kg/injection, schedule: Q01DX009 (ip), vehicle: saline + Tween-80 + alcohol) was 116 % of control and the T/C (dose: 100.0 mg/kg/injection, schedule: Q01DX009 (ip), vehicle: saline + Tween-80 + alcohol) was 106 % of control.
For `COP(=O)(O)NS(C)(=O)=O`, the T/C (dose: 25.0 mg/kg/injection, schedule: Q01DX009 (ip), vehicle: saline) was 100 % of control, the T/C [6] was 102 % of control and the T/C [7] was 103 % of control.
`CC(=O)c1c(O)c(C)c(O)c2c1OC1=Cc3c(c(C)nn3C)C(=O)C12C` (configuration not stated) was tested, and the T/C (dose: 6.25 mg/kg/injection, schedule: Q01DX009 (ip), vehicle: gum acacia) was 100 % of control and 109 % of control and the T/C (dose: 50.0 mg/kg/injection, schedule: Q01DX009 (ip), vehicle: gum acacia) was 119 % of control and 92 % of control and 93 % of control.
For `COC(=O)C1C(C2OC3OC(C)(C)OC3C3OC(C)(C)OC32)N1C(=O)Cl` (configuration not stated), the T/C [8] was 102 % of control and the T/C [9] was 103 % of control.
`COC(=O)CC1(C(=O)OC)Oc2ccc(Br)cc2C(=O)N1c1cccc(Cl)c1Cl` (configuration not stated) was tested, and the T/C [4] was 100 % of control, the T/C [5] was 91 % of control and the T/C (dose: 200.0 mg/kg/injection, schedule: Q01DX005 (ip), vehicle: saline with Tween-80) was 100 % of control.
`COc1cc2c(cc1OC)C(C(=O)O)C1c3cc4c(cc3CCN1C2=O)OCO4` (configuration not stated) was tested, and the T/C (dose: 50.0 mg/kg/injection, schedule: Q04DX003 (ip), vehicle: distilled water + Tween-80) was 102 % of control and 115 % of control, the T/C (dose: 100.0 mg/kg/injection, schedule: Q04DX003 (ip), vehicle: distilled water + Tween-80) was 105 % of control and 100 % of control and the T/C (dose: 200.0 mg/kg/injection, schedule: Q04DX003 (ip), vehicle: distilled water + Tween-80) was 113 % of control and 100 % of control. For the same compound, the T/C (dose: 400.0 mg/kg/injection, schedule: Q04DX003 (ip), vehicle: distilled water + Tween-80) was 88 % of control and 100 % of control.
`CC(C)=CO[Si](C)(C)C` was tested, and the T/C (dose: 50.0 mg/kg/injection, schedule: Q01DX009 (ip), vehicle: olive oil, sesame oil, peanut oil) was 99 % of control, the T/C (dose: 100.0 mg/kg/injection, schedule: Q01DX009 (ip), vehicle: olive oil, sesame oil, peanut oil) was 99 % of control and the T/C (dose: 200.0 mg/kg/injection, schedule: Q01DX009 (ip), vehicle: olive oil, sesame oil, peanut oil) was 114 % of control.
With `COc1c(O)ccc2c1CCCCC2=O` the T/C (dose: 100.0 mg/kg/injection, schedule: Q01DX009 (ip), vehicle: saline with Tween-80) was 103 % of control, the T/C (dose: 200.0 mg/kg/injection, schedule: Q01DX009 (ip), vehicle: saline with Tween-80) was 110 % of control and the T/C (dose: 400.0 mg/kg/injection, schedule: Q01DX009 (ip), vehicle: saline with Tween-80) was 106 % of control.
`CC/C(=N/N(C)C)C(=O)OC` was tested, and the T/C (dose: 100.0 mg/kg/injection, schedule: Q04DX002 (ip), vehicle: saline) was 95 % of control, the T/C (dose: 200.0 mg/kg/injection, schedule: Q04DX002 (ip), vehicle: saline) was 100 % of control and the T/C (dose: 400.0 mg/kg/injection, schedule: Q04DX002 (ip), vehicle: saline) was 98 % of control.
In the case of `O=c1c2ccccc2sc2c1c(N(CCCl)CCCl)cc1ccccc12`, the T/C (dose: 25.0 mg/kg/injection, schedule: Q01DX005 (ip), vehicle: distilled water + Tween-80) is reported as 92 % of control, the T/C (dose: 50.0 mg/kg/injection, schedule: Q01DX005 (ip), vehicle: distilled water + Tween-80) is reported as 94 % of control and the T/C (dose: 100.0 mg/kg/injection, schedule: Q01DX005 (ip), vehicle: distilled water + Tween-80) is reported as 94 % of control. For the same compound, the T/C (dose: 200.0 mg/kg/injection, schedule: Q01DX005 (ip), vehicle: distilled water + Tween-80) was 95 % of control.
In the case of `NC1=C(O)C(=O)C(/C=C/c2ccccc2)O1` (configuration not stated), the T/C [1] is reported as 90 % of control, the T/C [2] is reported as 90 % of control and the T/C [3] is reported as 87 % of control.
For `CN(C)CCC(C#N)(CCN(C)C)c1ccccc1`, the T/C (dose: 50.0 mg/kg/injection, schedule: Q01DX005 (ip), vehicle: saline) was 105 % of control, the T/C (dose: 100.0 mg/kg/injection, schedule: Q01DX005 (ip), vehicle: saline) was 103 % of control and the T/C (dose: 200.0 mg/kg/injection, schedule: Q01DX005 (ip), vehicle: saline) was 106 % of control.
In the case of `c1ccc(P(CCP(c2ccccc2)c2ccccc2)c2ccccc2)cc1`, the T/C (dose: 25.0 mg/kg/injection, schedule: Q04DX003 (ip), vehicle: Klucel (hydroxypropylcellulose) (HPC)) is reported as 117 % of control, the T/C (dose: 100.0 mg/kg/injection, schedule: Q04DX003 (ip), vehicle: Klucel (hydroxypropylcellulose) (HPC)) is reported as 153 % of control and the T/C (dose: 200.0 mg/kg/injection, schedule: Q04DX003 (ip), vehicle: Klucel (hydroxypropylcellulose) (HPC)) is reported as 161 % of control.
`Cc1ccc(S(=O)(=O)OC2C=CC(=O)C(OC(=O)c3ccccc3)C2OC(=O)c2ccccc2)cc1` (configuration not stated) was tested, and the T/C (dose: 50.0 mg/kg/injection, schedule: Q01DX001 (ip), vehicle: saline with Tween-80) was 102 % of control, the T/C (dose: 100.0 mg/kg/injection, schedule: Q01DX001 (ip), vehicle: saline with Tween-80) was 100 % of control and the T/C (dose: 200.0 mg/kg/injection, schedule: Q01DX001 (ip), vehicle: saline with Tween-80) was 91 % of control. For the same compound, the T/C (dose: 400.0 mg/kg/injection, schedule: Q01DX001 (ip), vehicle: saline with Tween-80) was 98 % of control.
`CC(C)(CC(=O)OCCO)c1cc(CC(C)(C)c2cc(CC(C)(C)c3cc(CC(C)(C)C4(C)OCCO4)no3)no2)no1` was tested, and the T/C [8] was 88 % of control, the T/C [9] was 87 % of control and the T/C (dose: 400.0 mg/kg/injection, schedule: Q04DX002 (ip), vehicle: saline with Tween-80) was 87 % of control.
